What all share (assay): NCI-60 cell line screen, 48 h
Test [1] has as its system K-562 leukemia.
Test [2] deals with SF-539 CNS.
Test [3] relates to OVCAR-8 ovarian.
In test [4] the test system is NCI-H460 lung.
Test [5] has as its system OVCAR-4 ovarian.
The test system of test [6] is TK-10 renal.
The test system of test [7] is 786-0 renal.
Test [8] relates to U251 CNS.
Test [9] deals with UACC-257 melanoma.
Test [10] concerns NCI/ADR-RES ovarian.

The source of these data is PubChem BioAssay (NCI).

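Protocol summary: plate cells (96-well), add compound at 5 concentrations, incubate 48 h, interpolate endpoints linearly. Abbreviation: GI50, concentration required for 50% inhibition of growth. TGI denotes the concentration required for complete inhibition of growth.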

For the compound `C[C@@H](NC(=O)/C(C#N)=C/c1ccc([N+](=O)[O-])cc1)c1ccccc1`, the GI50 in test [1] was 2.75 µM; in [2], 1.7 µM; in test [3], 2.87 µM; in test [4], 2.58 µM; in test [5], 2.15 µM; in [6], 5.07 µM. In addition, the GI50 in [7] was 2.54 µM; in test [8], 1.79 µM; in test [9], 2.38 µM; in test [10] it was 3.19 µM. In addition, the TGI in test [1] is 14 µM; in test [2], 3.37 µM; in test [3], 8.05 µM; in test [4], 6.95 µM; in [5], 5.95 µM; in test [6], 12.1 µM. Also, the TGI in [7] stood at 8.84 µM; in test [8], 3.44 µM; in test [9], 7.09 µM; in test [10], 13.3 µM.
Take `COc1ccc2c(c1)oc(=O)c1cc(OC)ccc12`: the GI50 in test [1], in test [2], in test [3], in [4], in test [5] and in test [6] was more than 100 µM each time. Besides, the GI50 in test [7], in test [8], in [9] and in test [10] was more than 100 µM throughout. Also, the TGI in [1], in test [2], in test [3], in test [4], in test [5] and in test [6] was more than 100 µM throughout. In addition, the TGI in test [7], in test [8], in [9] and in test [10] was more than 100 µM throughout.
As for `Cc1ccc(-c2cc3c4c(nc5ccccc53)C(=O)c3cccnc3-c4n2)cc1`, the GI50 is 0.39 µM in [1]; 6.68 µM in [2]; 11.4 µM in test [3]; 3.14 µM in test [4]; 15.6 µM in test [5]; 26.4 µM in [6]. Also, the GI50 in test [7] is 18.2 µM; in test [8] it was 9.51 µM; in test [9], 6.01 µM; in test [10], 14.3 µM. The TGI in test [1] was more than 100 µM; in [2], 26.7 µM; in test [3], 37.6 µM; in test [4] it was 16.4 µM; in [5] it was 73.8 µM; in test [6], 97.3 µM. Further, the TGI in test [7] was 52.5 µM; in test [8], more than 66.9 µM; in test [9], 20.8 µM; in test [10], 49.7 µM.
Turning to `CC[C@@H](C(=O)[C@H](C)[C@H](O)[C@@H](C)[C@H]1O[C@H]([C@@H](CC)C(=O)N(CC)CC)CC[C@H]1C)C1O[C@]2(C=C[C@@H](O)[C@]3(CC[C@@](C)([C@H]4CC[C@](O)(CC)[C@H](C)O4)O3)O2)[C@H](C)C[C@@H]1C` (some centres undefined), the GI50 in test [1] was 3.12 µM; in test [2] it was 3.01 µM; in test [3], 3.42 µM; in test [4] it was 2.61 µM; in test [5], 3.04 µM; in [6], 3.35 µM. Besides, the GI50 in test [7] is 3.55 µM; in test [8] it was 3.33 µM; in test [9] it was 3.07 µM; in test [10], 2.56 µM. In addition, the TGI in test [1] was determined as 19.4 µM; in test [2], 10.5 µM; in test [3] it was 21.1 µM; in [4] it was 7.3 µM; in test [5] it was 11.3 µM; in test [6], 26.7 µM. Further, the TGI in [7] came out at 17.5 µM; in test [8] it was 14 µM; in [9], 12.4 µM; in test [10], 9.27 µM.
On to `CC(C)(C)[Si](C)(C)OC1[C@@H](O[Si](C)(C)C(C)(C)C)[C@@H](CNC(=O)NC(=O)CF)O[C@H]1n1cnc2c(NC(=O)Nc3ccccc3)ncnc21` (some centres undefined), for which the GI50 in test [1] is 14.7 µM; in test [2], 14.5 µM; in test [3] it was 12.8 µM; in [4] it was 8.32 µM; in [5], 6.18 µM; in test [6], 16.5 µM. The GI50 was 7.46 µM in test [7], 9.67 µM in test [8], 20 µM in test [9] and 48.5 µM in test [10]. Moreover, the TGI in test [1] is more than 50 µM; in test [2] it was more than 50 µM; in [3], more than 50 µM; in test [4], more than 50 µM; in test [5], more than 50 µM; in test [6] it was 41.7 µM. Besides, the TGI in test [7] is 15.9 µM; in test [8] it was 25.8 µM; in test [9] it was more than 50 µM; in test [10] it was more than 50 µM.
`C[C@@H]1CCC([C@@H](C)[C@H]2CC[C@H]3[C@@H]4CC[C@H]5C[C@@H](O)CC[C@]5(C)[C@H]4CC[C@]23C)=NC1`: the TGI is more than 100 µM in test [1]; more than 100 µM in [2]; more than 100 µM in test [3]; 48.9 µM in [4]; more than 100 µM in test [5]; more than 100 µM in test [6]. Further, the TGI in test [7] is more than 56.2 µM; in test [8], more than 86.4 µM; in test [9], more than 100 µM; in test [10], more than 100 µM.
For `C[C@]12CC[C@@H]3c4cc(O)c(O)cc4CC[C@H]3[C@@H]1CC[C@@H]2O`, the GI50 in [1] was 0.499 µM; in test [2], 1.64 µM; in test [3] it was 6.89 µM; in test [4], 3.75 µM; in [5] it was 16.2 µM; in test [6], 24.8 µM. For the same compound, the GI50 is 6.08 µM in test [7], 6.86 µM in [8], 13 µM in [9] and 1.3 µM in test [10]. The TGI in [1] is more than 100 µM; in [2] it was 5.45 µM; in test [3], more than 100 µM; in test [4] it was 18.1 µM; in test [5], more than 100 µM; in [6], more than 74.9 µM. The TGI was more than 100 µM in [7], 35.1 µM in [8], more than 100 µM in test [9] and more than 45.4 µM in test [10].
Consider `O=C(/C(=C/c1ccc([N+](=O)[O-])cc1)SCc1ccc(Cl)cc1)c1ccc(F)cc1`, for which the GI50 was 2.45 µM in [1]; 3.47 µM in [2]; 3.17 µM in test [3]; 5.79 µM in test [4]; 3.11 µM in [5]; 12.9 µM in [6]. In addition, the GI50 is 2.66 µM in test [7], 1.74 µM in [8], 11.5 µM in [9] and 2.78 µM in test [10]. The TGI was more than 100 µM in [1]; 12.6 µM in [2]; 12.7 µM in test [3]; 24.7 µM in test [4]; 13.9 µM in [5]; 29.5 µM in [6]. The TGI is 7.9 µM in [7], 3.17 µM in [8], 26.1 µM in [9] and 11.2 µM in test [10].
In the case of `Cn1cc(C2=C(c3c4n(c5ccccc35)CCC(CN)C4)C(=O)NC2=O)c2ccccc21` (centres undefined), the GI50 in test [1] was 3.54 µM; in [2], 3.63 µM; in test [3], 3.77 µM; in test [4], 3.32 µM; in test [5], 2.5 µM; in test [6] it was 2.62 µM. For the same compound, the GI50 in [7] was 4.25 µM; in test [8] it was 2.74 µM; in test [9] it was 3.23 µM; in test [10] it was 14.9 µM. The TGI amounted to 8.27 µM in [1]; 7.16 µM in test [2]; 8.92 µM in [3]; 7.05 µM in test [4]; 7.42 µM in test [5]; 5.58 µM in test [6]. For the same compound, the TGI amounted to 8.38 µM in test [7], 6 µM in test [8], 6.68 µM in test [9] and 25 µM in [10].
On to `COc1cc2ncnc(Nc3cccc(Cl)c3F)c2cc1OC(=O)N1CCN(C)C[C@H]1C`, for which the GI50 in test [1] was more than 30.7 µM; in [2], more than 40.4 µM; in test [3], more than 40.9 µM; in test [4] it was more than 48.8 µM; in [5], more than 44.5 µM; in [6], 0.18 µM. The GI50 is more than 34.2 µM in [7], more than 44.2 µM in test [8], more than 41.1 µM in [9] and more than 36.3 µM in [10]. In addition, the TGI in test [1] was more than 63.9 µM; in [2] it was more than 58.9 µM; in test [3] it was more than 77.9 µM; in test [4], more than 82.4 µM; in test [5], more than 79.1 µM; in [6], 20 µM. Further, the TGI in test [7] was more than 53.3 µM; in test [8] it was more than 64.5 µM; in test [9] it was more than 59.2 µM; in test [10], more than 75.2 µM.
On to `c1ccc2cc(NCNc3ccc4ccccc4c3)ccc2c1`, for which the TGI was 38.8 µM in test [1]; 71.3 µM in [2]; 58.2 µM in test [3]; 28.9 µM in test [4]; 26.6 µM in [5]; more than 67.6 µM in test [6]. The TGI is 40.8 µM in test [7], 93.6 µM in test [8], 20.9 µM in test [9] and 72.5 µM in test [10].
For the compound `COc1cc(C(=O)N2CCN(c3ccccc3)CC2)c2ccccc2n1`, the GI50 in test [1] is 0.0782 µM; in [2], 0.0973 µM; in test [3], 0.248 µM; in test [4] it was 0.0481 µM; in [5] it was 4.27 µM; in test [6], 0.287 µM. For the same compound, the GI50 was 0.127 µM in test [7], 0.0955 µM in test [8], 0.108 µM in [9] and 0.0361 µM in [10]. The TGI in [1] was more than 100 µM; in test [3], more than 23.8 µM; in test [4] it was 4.1 µM; in test [5] it was more than 100 µM; in [6] it was more than 100 µM; in test [7] it was more than 100 µM. Further, the TGI was more than 100 µM in test [8], more than 100 µM in test [9] and 0.176 µM in [10].
As to `COc1cc(/C(=C2/O[C@@H]([C@H]3COC(C)(C)O3)[C@H]3OC(C)(C)O[C@@H]23)c2ccc3ccccc3c2)cc(OC)c1OC`, the GI50 is 4.02 µM in test [1]; 14.3 µM in [2]; 3.89 µM in test [3]; 4.1 µM in test [4]; 2.82 µM in [5]; 3.2 µM in test [6]. The GI50 in [7] is 2.3 µM; in test [8], 3.12 µM; in [9], 4.28 µM; in test [10], 4.26 µM. For the same compound, the TGI in [1] was more than 100 µM; in test [2], 79 µM; in [3], more than 100 µM; in [4] it was more than 100 µM; in test [5], 8.02 µM; in [6], 7.2 µM. Also, the TGI was determined as 4.47 µM in test [7], 11.8 µM in [8], 67.9 µM in test [9] and 22.3 µM in [10].
As for `CC1(C)CC[C@]2(C(=O)O)CC[C@]3(C)C(=CC[C@@H]4[C@@]5(C)C[C@H](O)[C@H](O)[C@@](C)(C(=O)O)[C@@H]5CC[C@]43C)[C@@H]2C1`, the TGI in [1], in test [2], in test [3], in test [4], in test [5] and in [6] was more than 100 µM throughout. The TGI in test [7], in test [8], in test [9] and in [10] was more than 100 µM throughout.
With `C=C1C(=O)O[C@H]2C[C@@H]1CC/C(C)=C/CC/C(C)=C/CC[C@@]2(C)O`, the GI50 is 20 µM in test [1]; 24.9 µM in test [2]; 81.2 µM in test [3]; more than 100 µM in [4]; more than 100 µM in [5]; 21.5 µM in [6]. Moreover, the GI50 in test [7] was 43.4 µM; in test [8], 53 µM; in [9] it was more than 100 µM; in test [10], more than 100 µM. The TGI in [1] is 50.2 µM; in test [2], 59.3 µM; in test [3], more than 100 µM; in test [4], more than 100 µM; in test [5] it was more than 100 µM; in test [6] it was 67.7 µM. The TGI in test [7], in test [8], in test [9] and in [10] was more than 100 µM each time.
